From PubChem BioAssay AID2060619 (Molecular Pharmacology Branch, DTP, NCI, 2025)

Test system: 323965-272-R-J2-PDC complex spheroid viability
Experiment: Anticancer human tumor 323965-272-R-J2-PDC patient-derived pancreatic carcinoma cell line growth inhibition [CLK]
Settings: for IC50: curve of first compound; for viability, T/C: stronger effect = lower value; active means viability on the fitted dose curve at most 10% of control; inactive means the rest
Method in brief: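 Patient-derived tumor cells grown as complex spheroids with HUVEC endothelial cells and mesenchymal stem cells, treated with drug combinations. Concentrations descend in half-log steps from near clinical Cmax, or from 10 microM if Cmax unknown.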

[1] = second compound 0.0316 µM, first compound 0.0316 µM
[2] = second compound 0.0316 µM, first compound 0.1 µM
[3] = second compound 0.0316 µM, first compound 0.316 µM
[4] = second compound 0.0316 µM, first compound 1 µM
[5] = second compound 0.0316 µM, first compound 3.16 µM
[6] = second compound 0.0316 µM, first compound 10 µM
[7] = second compound 0.1 µM, first compound 0.0316 µM
[8] = second compound 0.1 µM, first compound 0.1 µM
[9] = second compound 0.1 µM, first compound 0.316 µM
[10] = second compound 0.1 µM, first compound 1 µM
[11] = second compound 0.1 µM, first compound 3.16 µM
[12] = second compound 0.1 µM, first compound 10 µM
[13] = second compound 0.316 µM, first compound 0.0316 µM
[14] = second compound 0.316 µM, first compound 0.1 µM
[15] = second compound 0.316 µM, first compound 0.316 µM
[16] = second compound 0.316 µM, first compound 1 µM
[17] = second compound 0.316 µM, first compound 3.16 µM
[18] = second compound 0.316 µM, first compound 10 µM
[19] = second compound 1 µM, first compound 0.0316 µM
[20] = second compound 1 µM, first compound 0.1 µM
[21] = second compound 1 µM, first compound 0.316 µM
[22] = second compound 1 µM, first compound 1 µM
[23] = second compound 1 µM, first compound 3.16 µM
[24] = second compound 1 µM, first compound 10 µM
[25] = second compound 3.16 µM, first compound 0.0316 µM
[26] = second compound 3.16 µM, first compound 0.1 µM
[27] = second compound 3.16 µM, first compound 0.316 µM
[28] = second compound 3.16 µM, first compound 1 µM
[29] = second compound 3.16 µM, first compound 3.16 µM
[30] = second compound 3.16 µM, first compound 10 µM
[31] = second compound 10 µM, first compound 0.0316 µM
[32] = second compound 10 µM, first compound 0.1 µM
[33] = second compound 10 µM, first compound 0.316 µM
[34] = second compound 10 µM, first compound 1 µM
[35] = second compound 10 µM, first compound 3.16 µM
[36] = second compound 10 µM, first compound 10 µM
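Further: spheroids exposed to agents for seven days before readout.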
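Wherever viability, T/C is given: percent of DMSO vehicle control wells so 100% = untreated growth.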

CC(C)CC(NC(=O)C(Cc1ccccc1)NC(=O)c1cnccn1)B(O)O (stereo unspecified) + CNC(=O)c1ccc(Nc2nc(OC3CCCC3)c3c(-c4ccc5nc(C)oc5c4)c[nH]c3n2)c(OC)c1
3.11 nM: IC50 (second compound 0.316 µM)
1.02 nM: IC50 (second compound 10 µM)
< 0.949 nM: IC50 (second compound 3.16 µM)
3.5 nM: IC50 (second compound 0.0316 µM)
1.72 nM: IC50 (second compound 1 µM)
inactive: viability, T/C (second compound 0.0316 µM, first compound 0.000949 µM) 144% | viability, T/C (second compound 0.0316 µM, first compound 0.003 µM) 57.1% | viability, T/C (second compound 0.1 µM, first compound 0.000949 µM) 97.1% | viability, T/C (second compound 0.1 µM, first compound 0.003 µM) 62.7% | viability, T/C (second compound 0.316 µM, first compound 0.000949 µM) 77.6% | viability, T/C (second compound 0.316 µM, first compound 0.003 µM) 51.5% | viability, T/C (second compound 1 µM, first compound 0.000949 µM) 62.9% | viability, T/C (second compound 1 µM, first compound 0.003 µM) 38% | viability, T/C (second compound 3.16 µM, first compound 0.000949 µM) 48.7% | viability, T/C (second compound 3.16 µM, first compound 0.003 µM) 28.7% | viability, T/C (second compound 10 µM, first compound 0.000949 µM) 51.6% | viability, T/C (second compound 10 µM, first compound 0.003 µM) 24.5%
active: viability, T/C (second compound 0.0316 µM, first compound 0.00949 µM) 3.74% | viability, T/C (second compound 0.0316 µM, first compound 0.03 µM) 0.63% | viability, T/C (second compound 0.0316 µM, first compound 0.0949 µM) 0.4% | viability, T/C (second compound 0.0316 µM, first compound 0.3 µM) 1.5% | viability, T/C (second compound 0.1 µM, first compound 0.00949 µM) 3.57% | viability, T/C (second compound 0.1 µM, first compound 0.03 µM) 0.66% | viability, T/C (second compound 0.1 µM, first compound 0.0949 µM) 0.72% | viability, T/C (second compound 0.1 µM, first compound 0.3 µM) 3.02% | viability, T/C (second compound 0.316 µM, first compound 0.00949 µM) 3.56% | viability, T/C (second compound 0.316 µM, first compound 0.03 µM) 0.65% | viability, T/C (second compound 0.316 µM, first compound 0.0949 µM) 0.61% | viability, T/C (second compound 0.316 µM, first compound 0.3 µM) 0.43% | viability, T/C (second compound 1 µM, first compound 0.00949 µM) 3.86% | viability, T/C (second compound 1 µM, first compound 0.03 µM) 0.86% | viability, T/C (second compound 1 µM, first compound 0.0949 µM) 1.19% | viability, T/C (second compound 1 µM, first compound 0.3 µM) 1.58% | viability, T/C (second compound 3.16 µM, first compound 0.00949 µM) 1.87% | viability, T/C (second compound 3.16 µM, first compound 0.03 µM) 0.28% | viability, T/C (second compound 3.16 µM, first compound 0.0949 µM) 0.73% | viability, T/C (second compound 3.16 µM, first compound 0.3 µM) 1.18% | viability, T/C (second compound 10 µM, first compound 0.00949 µM) 1.13% | viability, T/C (second compound 10 µM, first compound 0.03 µM) 0.33% | viability, T/C (second compound 10 µM, first compound 0.0949 µM) 0.86% | viability, T/C (second compound 10 µM, first compound 0.3 µM) 2.07%
3.84 nM: IC50 (second compound 0.1 µM)

CC1COCCN1c1cc(C2(S(C)(=N)=O)CC2)nc(-c2ccnc3[nH]ccc23)n1 (stereo unspecified) + CNC(=O)c1ccc(Nc2nc(OC3CCCC3)c3c(-c4ccc5nc(C)oc5c4)c[nH]c3n2)c(OC)c1
1680 nM: IC50 (second compound 0.1 µM)
< 31.6 nM: IC50 (second compound 1 µM) | IC50 (second compound 3.16 µM) | IC50 (second compound 10 µM)
2100 nM: IC50 (second compound 0.0316 µM)
inactive: viability, T/C [1] 109% | viability, T/C [2] 106% | viability, T/C [3] 90.7% | viability, T/C [4] 70.1% | viability, T/C [5] 38.2% | viability, T/C [6] 25.6% | viability, T/C [7] 94% | viability, T/C [8] 93.8% | viability, T/C [9] 64.2% | viability, T/C [10] 64.2% | viability, T/C [11] 37.8% | viability, T/C [12] 33.9% | viability, T/C [13] 58.5% | viability, T/C [14] 61.5% | viability, T/C [15] 61.2% | viability, T/C [16] 51.1% | viability, T/C [17] 37.4% | viability, T/C [18] 27.7% | viability, T/C [19] 43.4% | viability, T/C [20] 48.9% | viability, T/C [21] 40.7% | viability, T/C [22] 33.8% | viability, T/C [23] 24% | viability, T/C [24] 18.7% | viability, T/C [25] 41.7% | viability, T/C [26] 36.9% | viability, T/C [27] 39.2% | viability, T/C [28] 31.5% | viability, T/C [29] 24.1% | viability, T/C [30] 18.7% | viability, T/C [31] 46.8% | viability, T/C [32] 42.6% | viability, T/C [33] 38.5% | viability, T/C [34] 28.5% | viability, T/C [35] 22% | viability, T/C [36] 16.8%
1180 nM: IC50 (second compound 0.316 µM)

O=C(c1cc(Cc2n[nH]c(=O)c3ccccc23)ccc1F)N1CCN(C(=O)C2CC2)CC1 + CNC(=O)c1ccc(Nc2nc(OC3CCCC3)c3c(-c4ccc5nc(C)oc5c4)c[nH]c3n2)c(OC)c1
< 31.6 nM: IC50 (second compound 3.16 µM) | IC50 (second compound 10 µM)
> 10000 nM: IC50 (second compound 0.0316 µM) | IC50 (second compound 0.1 µM) | IC50 (second compound 0.316 µM) | IC50 (second compound 1 µM)
inactive: viability, T/C [1] 129% | viability, T/C [2] 115% | viability, T/C [3] 107% | viability, T/C [4] 105% | viability, T/C [5] 117% | viability, T/C [6] 92% | viability, T/C [7] 101% | viability, T/C [8] 93.4% | viability, T/C [9] 94.4% | viability, T/C [10] 95.4% | viability, T/C [11] 88.6% | viability, T/C [12] 82.2% | viability, T/C [13] 64.3% | viability, T/C [14] 64.4% | viability, T/C [15] 57.9% | viability, T/C [16] 61.8% | viability, T/C [17] 73.2% | viability, T/C [18] 63.1% | viability, T/C [19] 55.4% | viability, T/C [20] 47.4% | viability, T/C [21] 51.5% | viability, T/C [22] 53.4% | viability, T/C [23] 51.3% | viability, T/C [24] 52.5% | viability, T/C [25] 44% | viability, T/C [26] 52.6% | viability, T/C [27] 46.8% | viability, T/C [28] 48.3% | viability, T/C [29] 40% | viability, T/C [30] 48.8% | viability, T/C [31] 44.3% | viability, T/C [32] 44.7% | viability, T/C [33] 44.5% | viability, T/C [34] 43.8% | viability, T/C [35] 46.7% | viability, T/C [36] 53.4%
